According to patent US6525001B1, “Substituted pyrimidine and pyridine herbicides” (Mid-American Commercialization Corporation, priority 1997, dated 2003):

Legend:
Type in all cases: in vivo
Set-up in all cases: key: 0 is no effect; 10 is complete control
[1] = tested on: giant foxtail (Setaria faberii); assay: Test B pre-/postemergence
Outline: (§1)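 Seeds were planted and sprayed preemergence, while plants at 2 to 18 cm (1- to 4-leaf stage) were sprayed postemergence at the same time, with test chemical in a non-phytotoxic solvent mixture containing surfactant. After twelve to sixteen days in a greenhouse, injury was rated visually against untreated controls on a 0–10 scale.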

[2] = tested on: purple nutsedge (Cyperus rotundus); assay: Test B pre-/postemergence
Outline: as §1

[3] = tested on: bamyardgrass (Echinochloa crus-galli); assay: Test B flood test
Outline: (§2)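 Plants were grown to the 2-leaf stage before treatment with test chemical, then held in a greenhouse for twelve to sixteen days. Injury was visually rated against untreated controls on a 0–10 scale, where 0 is no effect and 10 is complete control.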

[4] = tested on: duck salad (Heteranthera limosa); assay: Test B flood test
Outline: as §2

[5] = tested on: rice (Oryza sativa); assay: Test B flood test
Outline: as §2

[6] = tested on: smallflower flatsedge (Cyperus difformis); assay: Test B flood test
Outline: as §2

[7] = Rate 62 g/ha, Postemergence (flood test)
[8] = Rate 125 g/ha, Postemergence, flood test
[9] = Rate 250 g/ha, Postemergence (flood test species)
[10] = Rate 500 g/ha, Postemergence (flood test species)
[11] = Rate 125 g/ha, Postemergence section (flood test species)
[12] = Preemergence, Rate 62 g/ha, scale of 0 to 10

Cc1cnc(-c2ccc(OC(F)(F)F)cc2)nc1Cc1cccc(C(F)(F)F)c1 [Compound 16]
4: Plant response rating, Barnyardgrass [3, 9] | Plant response rating, Barnyardgrass [3, 10] | Plant response rating, Rice [5, 10]
8: Plant response rating, Giant foxtail ([1]; Rate 500 g/ha, Preemergence)
0: Giant foxtail plant response rating ([1]; Rate 62 g/ha, Preemergence) | Plant response rating, Nutsedge ([2]; Rate 62 g/ha, Postemergence) | Nutsedge plant response rating ([2]; Rate 62 g/ha, Preemergence) | Plant response rating, Nutsedge ([2]; Rate 125 g/ha, Postemergence) | Nutsedge plant response rating ([2]; Rate 125 g/ha, Preemergence) | Plant response rating, Nutsedge ([2]; Rate 250 g/ha, Postemergence) | Plant response rating, Nutsedge ([2]; Rate 250 g/ha, Preemergence) | Plant response rating, Nutsedge ([2]; Rate 500 g/ha, Preemergence) | Plant response rating, Ducksalad [4, 7] | Plant response rating, Ducksalad [4, 8]
7: Plant response rating, Giant foxtail ([1]; Rate 250 g/ha, Preemergence)
2: Plant response rating, Barnyardgrass [3, 7] | Plant response rating, Ducksalad [4, 10] | Plant response rating, S. Flatsedge [6, 8] | Plant response rating, S. Flatsedge [6, 9]
3: Giant foxtail plant response rating ([1]; Rate 125 g/ha, Preemergence) | Plant response rating, Giant foxtail ([1]; Rate 500 g/ha, Postemergence) | Plant response rating, Barnyardgrass [3, 8] | Plant response rating, Rice [5, 9] | Plant response rating, S. Flatsedge [6, 10]
1: Plant response rating, Giant foxtail ([1]; Rate 62 g/ha, Postemergence) | Plant response rating, Giant foxtail ([1]; Rate 125 g/ha, Postemergence) | Plant response rating, Giant foxtail ([1]; Rate 250 g/ha, Postemergence) | Plant response rating, Nutsedge ([2]; Rate 500 g/ha, Postemergence) | Plant response rating, Ducksalad [4, 9] | Plant response rating, Rice [5, 7] | Plant response rating, Rice [5, 8] | Plant response rating, S. Flatsedge [6, 7]

CCc1cnc(-c2ccc(C(F)(F)F)cc2)nc1Cc1cccc(C(F)(F)F)c1 [Compound 22]
8: Plant response rating, Giant foxtail ([1]; Rate 250 g/ha, Postemergence) | Plant response rating, S. Flatsedge [6, 8]
0: Plant response rating, Nutsedge ([2]; Rate 62 g/ha, Postemergence) | Nutsedge plant response rating ([2]; Rate 62 g/ha, Preemergence) | Plant response rating, Nutsedge ([2]; Rate 125 g/ha, Postemergence)
3: Plant response rating, Ducksalad [4, 7] | Plant response rating, Rice [5, 7] | Plant response rating, S. Flatsedge [6, 7]
5: Plant response rating, Barnyardgrass [3, 8] | Plant response rating, Rice [5, 9]
4: Plant response rating, Barnyardgrass [3, 7] | Plant response rating, Ducksalad [4, 8] | Plant response rating, Rice [5, 8]
6: Plant response rating, Giant foxtail ([1]; Rate 62 g/ha, Postemergence) | Plant response rating, Giant foxtail ([1]; Rate 125 g/ha, Postemergence) | Plant response rating, Barnyardgrass [3, 9] | Plant response rating, Ducksalad [4, 9]
9: Giant foxtail plant response rating ([1]; Rate 62 g/ha, Preemergence) | Plant response rating, S. Flatsedge [6, 9]
1: Nutsedge plant response rating ([2]; Rate 125 g/ha, Preemergence)
10: Giant foxtail plant response rating ([1]; Rate 125 g/ha, Preemergence) | Plant response rating, Giant foxtail ([1]; Rate 250 g/ha, Preemergence)

Cc1cnc(-n2cnc(C(F)(F)F)c2)nc1Cc1cccc(C(F)(F)F)c1 [Compound 44]
7: Giant foxtail plant response rating ([1]; Rate 125 g/ha, Postemergence) | Plant response rating, Ducksalad [4, 8] | Plant response rating, Rice [5, 9]
5: Giant foxtail plant response rating ([1]; Rate 125 g/ha, Preemergence) | Plant response rating, Rice [5, 7]
6: Rice plant response rating [5, 11]
4: Giant foxtail plant response rating ([1]; Rate 62 g/ha, Preemergence) | Plant response rating, Barnyardgrass [3, 8] | Plant response rating, Barnyardgrass [3, 9] | Plant response rating, Ducksalad [4, 7]
1: Plant response rating, Nutsedge ([2]; Rate 62 g/ha, Postemergence)
3: Plant response rating, Nutsedge ([2]; Rate 250 g/ha, Postemergence) | Plant response rating, Barnyardgrass [3, 7]
2: Plant response rating, Giant foxtail ([1]; Rate 62 g/ha, Postemergence) | Nutsedge plant response rating ([2]; Rate 62 g/ha, Preemergence) | Nutsedge plant response rating ([2]; Rate 125 g/ha, Postemergence)
9: Plant response rating, Giant foxtail ([1]; Rate 250 g/ha, Postemergence) | Plant response rating, Giant foxtail ([1]; Rate 250 g/ha, Postemergence (so in the source)) | Plant response rating, Ducksalad [4, 9] | Plant response rating, S. Flatsedge [6, 7] | S. Flatsedge plant response rating [6, 11] | Plant response rating, S. Flatsedge [6, 9]

Cc1cnc(-n2cnc(C(F)(F)F)n2)nc1Cn1ccc(C(F)(F)F)n1 [Compound 51]
5: Plant response rating, Barnyardgrass [3, 7] | Rice plant response rating [5, 11]
10: Giant foxtail plant response rating ([1]; Rate 125 g/ha, Postemergence) | Plant response rating, Giant foxtail ([1]; Rate 125 g/ha, Preemergence) | Plant response rating, Giant foxtail ([1]; Rate 250 g/ha, Postemergence) | Plant response rating, Giant foxtail ([1]; Rate 250 g/ha, Preemergence)
9: Plant response rating, Nutsedge ([2]; Rate 125 g/ha, Preemergence) | Ducksalad plant response rating [4, 11] | Plant response rating, Ducksalad [4, 9] | Plant response rating, S. Flatsedge [6, 7] | S. Flatsedge plant response rating [6, 11] | Plant response rating, S. Flatsedge [6, 9]
6: Barnyardgrass plant response rating [3, 11]
8: Plant response rating, Giant foxtail ([1]; Rate 62 g/ha, Postemergence) | Giant foxtail plant response rating ([1]; Rate 62 g/ha, Preemergence) | Plant response rating, Ducksalad [4, 7] | Plant response rating, Rice [5, 9]
7: Plant response rating, Nutsedge ([2]; Rate 62 g/ha, Postemergence) | Plant response rating, Barnyardgrass [3, 9]
3: Nutsedge plant response rating ([2]; Rate 62 g/ha, Preemergence) | Plant response rating, Rice [5, 7]

Cc1cnc(-c2ccc(C(F)(F)F)cc2)nc1Cn1ccc(C#N)n1 [Compound 53]
7: Plant response rating, Ducksalad [4, 10]
1: Plant response rating, Giant foxtail [1, 12] | Giant foxtail plant response rating ([1]; Rate 62 g/ha, Postemergence) | Giant foxtail plant response rating ([1]; Rate 125 g/ha, Postemergence) | Plant response rating, Giant foxtail ([1]; Rate 250 g/ha, Postemergence) | Barnyardgrass plant response rating [3, 7] | Rice plant response rating [5, 7] | Rice plant response rating [5, 11] | Plant response rating, Rice [5, 9]
8: S. Flatsedge plant response rating [6, 11]
2: Plant response rating, Giant foxtail ([1]; Rate 500 g/ha, Postemergence) | Barnyardgrass plant response rating [3, 11] | Plant response rating, Barnyardgrass [3, 9] | Plant response rating, Barnyardgrass [3, 10] | Ducksalad plant response rating [4, 11] | Plant response rating, Rice [5, 10]
0: Plant response rating, Nutsedge [2, 12] | Nutsedge plant response rating ([2]; Rate 62 g/ha, Postemergence) | Nutsedge plant response rating ([2]; Rate 125 g/ha, Postemergence) | Plant response rating, Nutsedge ([2]; Rate 125 g/ha, Preemergence) | Plant response rating, Nutsedge ([2]; Rate 250 g/ha, Postemergence) | Plant response rating, Nutsedge ([2]; Rate 250 g/ha, Preemergence) | Plant response rating, Nutsedge ([2]; Rate 500 g/ha, Preemergence) | Ducksalad plant response rating [4, 7]
6: Plant response rating, Giant foxtail ([1]; Rate 250 g/ha, Preemergence) | Plant response rating, Giant foxtail ([1]; Rate 500 g/ha, Preemergence)
5: Plant response rating, Giant foxtail ([1]; Rate 125 g/ha, Preemergence) | Plant response rating, Ducksalad [4, 9] | S. Flatsedge plant response rating [6, 7]
9: Plant response rating, S. Flatsedge [6, 9] | Plant response rating, S. Flatsedge [6, 10]
